For this experiment, the system named is caspase-3. The experiment can be described thus: Selectivity of probes: caspase-3. Format: biochemical, human. Particulars: caspase-3 1 μg/mL, 37 °C, 2 h, λex 510 nm, λem 585 nm. An excerpt:
The resin used for SPPS was purchased from GL Biochem (Shanghai, China). Lipopolysaccharide (LPS, L2630), Nigericin and ATP (11140965001) were purchased from Merck (Shanghai, China) and Invitrogen (Shanghai, China), respectively. Cell culture plates were sourced from Wuxi NEST Biotechnology. Recombinant human caspase-1, caspase-3, caspase-4, and caspase-8 were obtained from Abcam and MCE (Shanghai, China). Anti-cleaved caspase-1 antibody, anti-GAPDH antibody, and goat anti-Rabbit/anti-mouse lgG/HRP were purchased from CST (USA) and Beyotime […]
(Shanghai, China). […]
Medical College (ethical approval number ZJCLA-IACUC-20011003). […]
To investigate the sensitivity of the probes for caspase-1, varying concentration of caspase-1 (0, 0.2, 0.4, 0.6, 0.8, 1.0, 1.25, 1.5, 1.75, 2, 2.5, 3 U/mL) were incubated with FPy1 (5 μM), YPy1 (5 μM) and WPy1 (5 μM) respectively in caspase-1 assay buffer (50 mM HEPES, 50 mM NaCl, 0.1 % chaps, 5 % glycerol, 10 mM DTT, 10 mM EDTA) at 37 °C for 2 hours. Fluorescence spectra were recorded using Hitachi F-2700 spectrophotometer with an excitation at 510 nm (Photomultiplier voltage 700 V; Slit widths ex: 10 nm and em =5.0 nm). […] The limit of detection (LoD) was calculated from 3σ/k, in which σ represents the standard deviation of 15 blank measurements. […]
10 nm and em =5.0 nm). The fluorescence intensity of FPy1, YPy1 and WPy1 at 585 nm were plotted separately against […]

This note sets out measurements from paper PMC12598616, “Design and optimization of caspase-1-responsive fluorescent probes for pyroptosis imaging and anti-pyroptosis drug screening” (Chemical Science, 2025).

“–FLTDG– [FPy1, RhoB donor, hNR quencher]”: the “fluorescence response to caspase-3” value is “almost no response”.
Then “–YVADG– [YPy1, caspase-1-responsive FRET probe with recognition peptide –YVADG–; RhoB donor, hNR quencher]”, with “almost no response”.
